The subject of assay [1] is S. aureus N315 (MRSA isolate). The assay is described as follows: Minimum inhibitory and bactericidal concentration determination. Type of assay: cell-based, Staphylococcus aureus. The settings on record: for change of MIC in minimal media compared to rich media: S. aureus N315; for MIC: Staphylococcus aureus, MRSA; for MIC S. aureus N315: Table 2; for MBC S. aureus N315: Table 2, value in parentheses. The procedure: (§1) The 96-well plate was organized as follows. Media (100 μl) were added to all wells.

The subject of assay [2] is PKZRSA1 (PKZ18-22-resistant MRSA). Briefly: MICs against PKZ18-22-resistant mutant compared to WT MRSA. Type of assay: cell-based, Staphylococcus aureus. The procedure: as §1
In assay [3] the test system is glyQS T-box. The assay is described as follows: qRT-PCR transcriptional read-through of T-box-regulated glyQS (confirmation of inhibition of T-box mechanism). Type of assay: cell-based, Bacillus subtilis 1A5. As to conditions: for T-box-controlled expression of glyQS (termination of read-through): B. subtilis 1A5, increasing concentrations, minimal media; for T-Box targeting: confirmation of inhibition of T-box mechanism from qRT-PCR assay; for inhibition of read-through compared with PKZ18: 4 μg/ml of each drug, side by side in same biological replicate. An excerpt: Sample preparation of RNA and cDNA.
A general note: In qPCR the cycle at which signal appears reflects the starting amount.

For assay [4], the system named is E. coli. Briefly: Minimum inhibitory and bactericidal concentration determination, Gram-negative control. Type of assay: cell-based, Escherichia coli. The settings on record: for MBC E. coli: value in parentheses. As to the method: as §1
For assay [5], the system named is S. aureus N315. The assay is described as follows: Checkerboard assay and FIC. The assay is classed as cell-based, Staphylococcus aureus. The procedure: S. aureus N315 cultures were prepared identically to MIC determination in BHI media. The co-MICs were determined using the checkerboard method. In short, antibiotics to be tested with PKZ18 analogs were diluted 2-fold top to bottom (A to G rows) in a 96-well plate, PKZ18 analogs were diluted 2-fold right to left (columns 11-2 of the 96-well plate), and column 12 was used for vector, media, and growth controls. Each drug was therefore tested by itself and with every dilution of the other drug.
The synergistic and additive interactions were determined based on determined cutoffs using the equation
[formula] where MICAB is the lowest possible concentration of both drugs combined where there is no growth, and MICA and MICB are the MIC values of the individual drugs. For a synergistic drug interaction, the fractional inhibitory concentration (FIC) should be below 0.5, additive or indifferent effects are considered in an FIC range of 0.5 to <4, and an FIC value above 4 is considered antagonistic.

Assay [6] concerns T-box controlled genes in MRSA. Briefly: RNA sequencing of MRSA grown in minimal media. The assay is classed as cell-based, Staphylococcus aureus. As to conditions: 4 μg/ml, control antibiotic.
Assay [7] has as its system S. aureus N315 (MRSA). Briefly: Antibiotic resistance frequency (fluctuation assay). The assay is classed as cell-based, Staphylococcus aureus. The settings on record: MRSA plated on 64 μg/ml PKZ18-22 or 10 μg/ml gentamicin. An excerpt:
Gentamicin on BHI agar was used as a control.

The test system of assay [8] is B. subtilis 168. The assay is described as follows: Minimum inhibitory concentration determination. Type of assay: cell-based, Bacillus subtilis. As to the method:
as §1

The values below come from patent US11617741B1, “Method for inhibiting growth of bacteria” (priority 2021, dated 2023).

One may read the MIC as the smallest concentration in the dilution series that meets the test's criterion for growth inhibition.

Converted amounts (≈) assume the structure as drawn. Where two headings read alike, the source gives them in different places. Marks after values point to notes of the source that are not given here.

With `C/C(=C\C(=O)OCCCCCCCCC(=O)O)C[C@@H]1OC[C@H](C[C@@H]2O[C@H]2[C@@H](C)[C@H](C)O)[C@@H](O)[C@H]1O` [Mupirocin, reference compound], the “change of MIC in minimal media compared to rich media” value in assay [1] is listed as “increased MICs”. Also, the MIC in assay [1] (S. aureus N315, minimal media, read-out: MIC against S. aureus in minimal media) is 1 µg/mL (≈ 2 µM); in assay [1] (S. aureus N315, rich media, read-out: MIC against S. aureus in rich media) it was 0.25 µg/mL (≈ 0.499 µM). Moreover, the “change in the MIC between WT and PKZRSA1” value in assay [2] is “no change”.
As for `CC(C)c1ccc(-c2csc(NC(=O)C3C4CCC(C4)C3C(=O)O)n2)cc1` (stereo not shown) [PKZ18-21], the “T-box-controlled expression of glyQS (termination of read-through)” value (“T-box-controlled expression of glyQS” below) in assay [3] was “inhibited”. The T-Box targeting entry in assay [3] (Table 1) is “Yes”. In addition, the T-Box targeting result in assay [3] (Table 2) is listed as “Yes”. In assay [1], the “MIC S. aureus N315” value was 64 µg/mL (≈ 166 µM) and the “MBC S. aureus N315” value is more than 256 µg/mL. Moreover, in assay [4], the MIC E. coli was more than 256 µg/mL and the MBC E. coli was more than 256 µg/mL.
As to `CCCCc1ccc(-c2nc(NC(=O)C3C4C=CC(C4)C3C(=O)O)sc2C)cc1` (stereo not shown) [PKZ18-52], the “fractional inhibitory concentration FIC” value in assay [5] (with gentamicin) came out at 0.38. In assay [3], the “inhibition of read-through compared with PKZ18” value was “significantly better than PKZ18” and the “T-box-controlled expression of glyQS” value is reported as “inhibited”. In addition, the T-Box targeting entry in assay [3] (Table 1) was “Yes”. For the same compound, the T-Box targeting entry in assay [3] (Table 2) is “Yes”. Also, in assay [1] (S. aureus N315, minimal media), the “MIC against S. aureus in minimal media” value is reported as 16^b μg/ml. In addition, in assay [1] (S. aureus N315, rich media), the “MIC against S. aureus in rich media” value is given as 16-32^b μg/ml. Further, in assay [1], the “MIC S. aureus N315” value came out at 32 µg/mL (≈ 77.9 µM) and the “MBC S. aureus N315” value is 64 µg/mL (≈ 156 µM). In assay [4], the MIC E. coli was more than 256 µg/mL and the MBC E. coli was more than 256 µg/mL.
Turning to `Cc1sc(NC(=O)C2C3C=CC(C3)C2C(=O)O)nc1-c1ccc(CC(C)C)cc1` (stereo not shown) [PKZ18-53], the “fractional inhibitory concentration FIC” value in assay [5] (with ampicillin) is 0.75; in assay [5] (with chloramphenicol), 0.75; in assay [5] (with gentamicin) it was 0.38. In addition, the “inhibition of read-through compared with PKZ18” value in assay [3] is “significantly better than PKZ18”. Besides, the “T-box-controlled expression of glyQS” value in assay [3] is on record as “inhibited”. The T-Box targeting result in assay [3] (Table 1) and in assay [3] (Table 2) was “Yes” in each case. Further, the “fold reduction in MIC in minimal compared to rich media” value in assay [1] (MRSA strain S. aureus N315) stood at 2 fold. The “MIC against S. aureus in minimal media” value in assay [1] (S. aureus N315, minimal media) was 16^b μg/ml. In addition, the “MIC against S. aureus in rich media” value in assay [1] (S. aureus N315, rich media) is 32^b μg/ml. Moreover, the “MIC S. aureus N315” value in assay [1] was found to be 32 µg/mL (≈ 77.9 µM). The “MBC S. aureus N315” value in assay [1] worked out at 64 µg/mL (≈ 156 µM). This compound came in with an MIC E. coli in assay [4] of more than 256 µg/mL. Also, the MBC E. coli in assay [4] was more than 256 µg/mL.
Take `CCCCc1ccc(-c2nc(NC(=O)C3C4CCC(O4)C3C(=O)O)sc2C)cc1` (stereo not shown) [PKZ18-54]: the T-Box targeting result in assay [3] (Table 1) is “No”. Moreover, the T-Box targeting entry in assay [3] (Table 2) is “No”. Further, in assay [1], the “MIC S. aureus N315” value was 128 µg/mL (≈ 309 µM) and the “MBC S. aureus N315” value was 256 µg/mL (≈ 618 µM). In assay [4], the MIC E. coli was more than 256 µg/mL and the MBC E. coli is more than 256 µg/mL.
Consider `COc1ccc(-c2csc(NC(=O)C3C4CCC(C4)C3C(=O)O)n2)cc1` (stereo not shown) [PKZ18-55], for which the T-Box targeting result in assay [3] (Table 1) is “No”. For the same compound, the T-Box targeting entry in assay [3] (Table 2) is given as “No”. Further, in assay [1], the MIC S. aureus N315 is more than 256 µg/mL and the MBC S. aureus N315 is more than 256 µg/mL. Further, in assay [4], the MIC E. coli was more than 256 µg/mL and the MBC E. coli was more than 256 µg/mL.
In the case of `CCCc1ccc(-c2nc(NC(=O)C3C4CCC(O4)C3C(=O)O)sc2C)cc1` (stereo not shown) [PKZ18-56], the T-Box targeting entry in assay [3] (Table 1) is “No”. In addition, the T-Box targeting entry in assay [3] (Table 2) was “No”. In assay [1], the MIC S. aureus N315 is more than 256 µg/mL and the MBC S. aureus N315 was more than 256 µg/mL. For the same compound, in assay [4], the MIC E. coli is more than 256 µg/mL and the MBC E. coli was more than 256 µg/mL.
Take `Cc1sc(NC(=O)C2C3CCC(O3)C2C(=O)O)nc1-c1ccc(CC(C)C)cc1` (stereo not shown) [PKZ18-57]: the T-Box targeting result in assay [3] (Table 1) is on record as “No”. Further, the T-Box targeting result in assay [3] (Table 2) is listed as “No”. In addition, in assay [1], the MIC S. aureus N315 is more than 256 µg/mL and the MBC S. aureus N315 is more than 256 µg/mL. For the same compound, in assay [4], the MIC E. coli is more than 256 µg/mL and the MBC E. coli was more than 256 µg/mL.
As to `CCc1ccc(-c2csc(NC(=O)C3C4CCC(C4=C(C)C)C3C(=O)O)n2)cc1` (stereo not shown) [PKZ18-58], the T-Box targeting result in assay [3] (Table 1) and in assay [3] (Table 2) was “No” in each case.
As to `O=C(N[C@H](CO)[C@H](O)c1ccc([N+](=O)[O-])cc1)C(Cl)Cl` [chloramphenicol], the “fold lower MIC for PKZRSA1 than WT MRSA” value in assay [2] came out at 2 fold.
Take `CCCCCCCCCC(=O)N[C@@H](Cc1c[nH]c2ccccc12)C(=O)N[C@H](CC(N)=O)C(=O)N[C@@H](CC(=O)O)C(=O)N[C@@H]1C(=O)NCC(=O)N[C@@H](CCCN)C(=O)N[C@@H](CC(=O)O)C(=O)N[C@H](C)C(=O)N[C@@H](CC(=O)O)C(=O)NCC(=O)N[C@H](CO)C(=O)N[C@@H]([C@H](C)CC(=O)O)C(=O)N[C@@H](CC(=O)c2ccccc2N)C(=O)O[C@@H]1C` [daptomycin, reference compound]: in assay [6], the “expression and read-through of T-box-controlled genes” value was “lower than untreated for many of the genes”; the “initiation of T-box-controlled genes” value is reported as “did not significantly affect”. Further, the “change in the MIC between WT and PKZRSA1” value in assay [2] is reported as “no change”.
Take `Cc1onc(-c2ccccc2)c1C(=O)N[C@@H]1C(=O)N2[C@@H]1SC(C)(C)[C@@H]2C(=O)O` [oxacillin]: the “fold increase in MIC against PKZRSA1 compared to WT” value in assay [2] is given as 16 fold.
As for `CO[C@H]1/C=C/O[C@@]2(C)Oc3c(C)c(O)c4c(O)c(c(/C=N/N5CCN(C)CC5)c(O)c4c3C2=O)NC(=O)/C(C)=C\C=C\[C@H](C)[C@H](O)[C@@H](C)[C@@H](O)[C@@H](C)[C@H](OC(C)=O)[C@@H]1C` [rifampin], the “change in the MIC between WT and PKZRSA1” value in assay [2] is “no change”.
As for Gentamicin [reference compound], the “fold decrease in the MIC of gentamicin” value in assay [5] (in combination with PKZ18-22) turned out to be 8 fold. Besides, the “change of MIC in minimal media compared to rich media” value in assay [1] is listed as “increased MICs”. Besides, the “MIC against S. aureus in minimal media” value in assay [1] (S. aureus N315, minimal media) was 2.0^b μg/ml. The “MIC against S. aureus in rich media” value in assay [1] (S. aureus N315, rich media) is recorded as 0.5^b μg/ml. Moreover, in assay [7], the resistance frequency is given as 1.6×10^−7. Moreover, the “fold increase in MIC against PKZRSA1 compared to WT” value in assay [2] was 2 fold. In assay [8] (minimal media), the “MIC against B. subtilis 168 in minimal media” value is 0.25 µg/mL. Besides, the “MIC against B. subtilis 168 in rich media” value in assay [8] (rich media) amounted to 0.125 µg/mL.
